Measured values reported in ChEMBL document CHEMBL1914353, “Utilization of halogen bond in lead optimization: a case study of rational design of potent phosphodiesterase type 5 (PDE5) inhibitors” (J Med Chem, 2011).

test: Inhibition of rabbit platelet PDE5 using [3H]cGMP as substrate after 30 mins by scintillation proximity assay; parameters: species or system Oryctolagus cuniculus

| IC50 | SMILES |
| --- | --- |
| 51.8 nM | CCCOc1ccc(S(=O)(=O)N2CCN(C)CC2)cc1-c1nc(CC)cc(=O)[nH]1 |
| 7.2 nM | CCCOc1ccc(S(=O)(=O)N2CCN(C)CC2)cc1-c1nc(CC)c(I)c(=O)[nH]1 |
| 3.3 nM | CCCc1nn(C)c2c(=O)[nH]c(-c3cc(S(=O)(=O)N4CCN(C)CC4)ccc3OCC)nc12 |
